Structures can show the parent of a compound that is named as a salt. Where two headings read alike, the source gives them in different places.
Experiments:
[1] = biological target: Recombinant human Menin protein (2-610) / MLL polypeptide binding (Homo sapiens (Human), UniProt O00255); assay: Menin and MLL protein binding at a molecular level (fluorescence polarization method); details: inhibition of Menin / MLL polypeptide binding
Summary of the method: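 Binding of recombinant human Menin (2-610) to 6-FAM-labelled MLL peptide measured by fluorescence polarization (ex 480/em 535 nm) in Tris/NaCl/TCEP buffer, pH 7.5, 2% DMSO. Compound preincubated with Menin 30 min at room temperature, then peptide added for 30 min in the dark. Tested at 1.000 down to 0.0005 μM final.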

[2] = tested on: MV-4-11 cells (human acute myelogenous leukemia cell line carrying MLL-AF4 mutation); assay: Cell proliferation assay, MV-4-11 (CellTiter-Glo); format: cell-based; details: Homo sapiens, MV4-11, 72 h
Summary of the method: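 MV-4-11 cells (3000/well, IMDM with 10% HIFBS and 50 μM β-mercaptoethanol) exposed to compound at 1.100–0.001 μM final, 0.1% DMSO, for 3 days at 37°C. Viability read by CellTiter-Glo luminescence on day 0 and day 3, normalised to day-0 and untreated wells.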

[3] = MV-4-11 cells, 3 days treatment, CellTiter-Glo, read-out: GI50

Chain of Recombinant human Menin protein (2-610) / MLL polypeptide binding (O00255 2-610): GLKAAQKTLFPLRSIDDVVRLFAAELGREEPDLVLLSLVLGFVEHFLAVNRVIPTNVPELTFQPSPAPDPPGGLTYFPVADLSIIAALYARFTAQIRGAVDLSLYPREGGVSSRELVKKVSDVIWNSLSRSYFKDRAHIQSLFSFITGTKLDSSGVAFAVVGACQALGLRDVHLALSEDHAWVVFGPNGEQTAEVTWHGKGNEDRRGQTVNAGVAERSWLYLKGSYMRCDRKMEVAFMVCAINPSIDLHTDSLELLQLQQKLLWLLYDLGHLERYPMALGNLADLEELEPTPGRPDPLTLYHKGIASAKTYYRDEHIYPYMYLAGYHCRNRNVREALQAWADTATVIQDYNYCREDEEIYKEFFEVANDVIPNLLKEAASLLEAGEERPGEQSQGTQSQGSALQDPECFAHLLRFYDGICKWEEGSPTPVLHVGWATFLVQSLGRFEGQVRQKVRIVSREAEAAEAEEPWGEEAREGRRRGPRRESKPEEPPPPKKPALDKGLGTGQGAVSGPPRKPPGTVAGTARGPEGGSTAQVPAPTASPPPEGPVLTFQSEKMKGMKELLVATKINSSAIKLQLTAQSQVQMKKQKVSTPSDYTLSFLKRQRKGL

IC50 [1] [nM]	GI50 [2, 3] [nM]	SMILES	GI50 [2] [nM]
5.9	5	CCN(C(=O)c1cc(F)ccc1Oc1nncnc1N1CC2(CCN(CC3CCN(c4ccc(OC)cn4)CC3)CC2)C1)C(C)C [Compound 112]	–
0.6	2	CCN(C(=O)c1cc(F)ccc1Oc1nncnc1N1CC2(CCN(CC3CCN(c4cc(OC)c(OC)nn4)CC3)C2)C1)C(C)C [Compound 93]	–
114	107	COc1cc(N2CCC(CN3CCC4(CC3)CN(c3ncnnc3Oc3ccc(Cl)cc3)C4)CC2)nnc1OC [Compound 103]	–
13.7	23	CCN(C(=O)c1cc(F)ccc1Oc1nncnc1N1CC2(CCN(CC3CCN(C(=O)Nc4ccccn4)CC3)CC2)C1)C(C)C [Compound 37]	–
153	442	CCN(C(=O)c1cc(F)ccc1Oc1nncnc1N1CC(C2(N(Cc3ccc4[nH]c(C#N)cc4c3C)C(C)C)CC2)C1)C(C)C [Compound 141]	–
19.8	36	CCN(C(=O)c1cc(F)ccc1Oc1nncnc1N1CC2(CCN(CC3CCN(C(=O)C4(C#N)CC4)CC3)CC2)C1)C(C)C [Compound 12]	–
13.6	43	CCN(C(=O)c1cc(F)ccc1Oc1nncnc1N1CC2(CCN(CC3CCN(C(=O)C4CC4)CC3)CC2)C1)C(C)C [Compound 1, 2-((5-(7-((1-(cyclopropanecarbonyl)piperidin-4-yl)methyl)-2,7-diazaspiro[3.5]nonan-2-yl)-1,2,4-triazin-6-yl)oxy)-N-ethyl-5-fluoro-N-isopropylbenzamide]	–
3.2	9	CCOc1cc(N2CCC(CN3CCC4(CC3)CN(c3ncnnc3Oc3ccc(F)cc3C(=O)N(CC)C(C)C)C4)CC2)nnc1OCC [Compound 95]	–
6.4	13	CCN(C(=O)c1cc(F)ccc1Oc1nncnc1N1CC2(CCN(CC3CCN(c4ccc5nccn5n4)CC3)CC2)C1)C(C)C [Compound 43]	–
21.6	60	CCN(C(=O)c1cc(F)ccc1Oc1nncnc1N1CC2(CCN(CC3CCN(c4cc5c(nn4)OCCO5)CC3)CC2)C1)C(C)C [Compound 108]	–
> 1000	1270	CCN(C(=O)c1cc(F)ccc1Oc1nncnc1N1CC2(CCN(Cc3cnc4c(c3)OC[C@H](c3ccc(OC)nc3)O4)CC2)C1)C(C)C [Compound 73]	–
5.4	7	CCN(C(=O)c1cc(F)ccc1Oc1nncnc1N1CC2(CCN(CC3CCN(c4ccc(C#N)cn4)CC3)CC2)C1)C(C)C [Compound 50]	–
99	87	CCN(C(=O)c1cc(F)ccc1Oc1nncnc1N1CC2(CCN(CC3(NCCOC)CC3)CC2)C1)C(C)C [Compound 53]	–
8.5	16	CCN(C(=O)c1cc(F)ccc1Oc1nncnc1N1CC2(CCN(Cc3ccc4oc(C#N)cc4c3)CC2)C1)C(C)C [Compound 69]	–
48.7	50	CCN(C(=O)c1cc(F)ccc1Oc1nncnc1N1CC2(CCN(Cc3ccc(NC(=O)CC#N)cc3C)CC2)C1)C(C)C [Compound 17]	–
2.3	3	CCN(C(=O)c1cc(F)ccc1Oc1nncnc1N1CC2(CCN(CC3CCN(c4cccc(C(N)=O)n4)CC3)CC2)C1)C(C)C [Compound 119]	–
> 1000	> 3300	Cc1nc(-c2cc(F)ccc2Oc2nncnc2N2CC3(CCN(CC4CCN(c5ccc(C#N)cn5)CC4)CC3)C2)n(C(C)C)n1 [Compound 118]	–
163	226	CCN(C(=O)c1cc(F)ccc1Oc1nncnc1N1CC2(CCN(Cc3ccc4[nH]ncc4c3)CC2)C1)C(C)C [Compound 64]	–
2.6	7	CCN(C(=O)c1cc(F)ccc1Oc1nncnc1N1CC2(CCN(CC3CCN(c4cccnn4)CC3)CC2)C1)C(C)C [Compound 166]	–
15.2	36	CCN(C(=O)c1cc(F)ccc1Oc1nncnc1N1CC2(CCN(CC3CCN(c4ccnc(C(C)(C)O)c4)CC3)CC2)C1)C(C)C [Compound 120]	–
50.2	80	CCN(C(=O)c1cc(F)ccc1Oc1nncnc1N1CC2(CCN(CC3CCN(C(=O)CNC4CC4)CC3)CC2)C1)C(C)C [Compound 7]	–

SMILES	IC50 [1] [nM]	GI50 [2, 3] [nM]	GI50 [2] [nM]
CCN(C(=O)c1cc(F)ccc1Oc1nncnc1N1CC2(CCN(CC3CCN(c4ccc(C(N)=O)cn4)CC3)CC2)C1)C(C)C [Compound 149, 6-(4-((2-(6-(2-(ethyl(isopropyl)carbamoyl)-4-fluorophenoxy)-1,2,4-triazin-5-yl)-2,7-diazaspiro[3.5]nonan-7-yl)methyl)piperidin-1-yl)nicotinamide formate]	2.9	–	6
